Data from EP1053246B1, “BETA-SHEET MIMETICS AND METHODS RELATING TO THE USE THEREOF” (MOLECUMETICS, LTD., priority 1998, dated 1999).
Read-outs that look alike come from different tables or passages of the source. Each block holds one compound with its values, some of them ahead of it.

How the values were obtained:
[1] = target: T1, bovine thrombin (Bos taurus, UniProt P00735); assay: thrombin assay: hydrolysis of the mimetic as proteolytic substrate; format: biochemical
T1 construct: bovine thrombin (from Sigma); purchased Sigma
Description: (§1) Both the thrombin and Factor VII assays of this experiment were carried out at 37°C using a Hitachi UV/Vis spectrophotometer (model U-3000). Structure (11b) was dissolved in deionized water. The concentration was determined from the absorbance at 342 nm. […] Initial velocities were calculated from the initial linear portion of the reaction progress curve. Kinetic parameters were determined by unweighted nonlinear least-squares fitting of the simple Michaelis-Menten equation to the experimental data using GraFit (Version 3.0, Erithacus Software Limited).
For the thrombin assay, experiments were performed in pH 8.4 Tris buffer (Tris, 0.05M; NaCl, 0.15M). 6.4 NIH units of bovine thrombin (from Sigma) were dissolved into 10 ml of the assay buffer to yield 10 nM thrombin solution. […] The first two minutes of the reactions were recorded for initial velocity determination.
(§2) In both the thrombin and Factor VII assay of this experiment, (D)FPR-PNA was run as a control.

[2] = target: T2, human Factor VIIa (FVIIa) (Homo sapiens, UniProt P08709); assay: Factor VII assay: hydrolysis of the mimetic as proteolytic substrate; format: biochemical; details: relative to (D)FPR-PNA control
T2 construct: human Factor VIIa (FVIIa)
T2 sequence (P13726 33-295 partner, one chain of several): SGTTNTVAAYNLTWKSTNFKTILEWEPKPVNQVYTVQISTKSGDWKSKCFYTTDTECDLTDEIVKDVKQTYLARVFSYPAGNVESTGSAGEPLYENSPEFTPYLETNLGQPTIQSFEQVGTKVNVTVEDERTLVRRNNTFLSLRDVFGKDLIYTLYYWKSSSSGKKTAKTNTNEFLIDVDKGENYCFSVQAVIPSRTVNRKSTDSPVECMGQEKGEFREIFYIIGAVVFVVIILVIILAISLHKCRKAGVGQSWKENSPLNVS
Description: as §1
For the Factor VII assay, pH 8.0 Tris buffer (0.05 M Tris, 5 mM CaCl2, 0.15 M NaCl, 0.1% TWEEN 20, 0.1% BSA) was used. 10 µl of 20 µM human Factor VIIa (FVIIa) and 22 µM of human tissue factor (TF) was brought to assay buffer to make 160 nM FVIIa and TF solutions, respectively. […] The initial 3 minutes reaction progress curves were recorded. […] The kcat/KM was calculated from the slope and found to be 17,500 M^-1s^-1.
as §2

[3] = target: T3, bovine factor Xa (Bos taurus, UniProt P00743); assay: Factor X inhibition assay (IC50, Example 4); format: biochemical; details: Factor X; read-out: IC50
T3 construct: bovine factor Xa (from Sigma); purchased Sigma
T3 sequence (P00743 41-180 limits assumed): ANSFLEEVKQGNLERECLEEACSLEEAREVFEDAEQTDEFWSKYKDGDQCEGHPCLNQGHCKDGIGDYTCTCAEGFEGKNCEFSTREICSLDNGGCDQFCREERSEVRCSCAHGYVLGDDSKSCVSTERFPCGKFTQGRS
T3 sequence (P00743 234-492 limits assumed): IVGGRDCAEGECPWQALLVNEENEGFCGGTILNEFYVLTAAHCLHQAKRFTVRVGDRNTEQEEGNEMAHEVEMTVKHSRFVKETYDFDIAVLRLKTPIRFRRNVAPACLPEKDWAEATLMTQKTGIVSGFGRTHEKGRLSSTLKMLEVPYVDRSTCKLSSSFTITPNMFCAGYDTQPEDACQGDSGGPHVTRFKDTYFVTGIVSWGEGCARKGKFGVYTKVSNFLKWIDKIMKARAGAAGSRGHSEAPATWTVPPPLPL
Description: All inhibition assays of this experiment were performed at room temperature in 96 well microplates using a Bio-Rad microplate reader (Model 3550). […] This solution (2.05 mM) served as the stock solution for all the inhibition assays. The hydrolysis of chromogenic substrates was monitored at 405 nm. The reaction progress curves were recorded by reading the plates typically 90 times with 30 seconds to 2 minute intervals. The initial rate were determined by unweighted nonlinear least-squares fitting to a first order reaction in GraFit.
In the Factor X assay, buffer and substrate are the same as used for thrombin assay. A 1:100 dilution was made into pH 8.4 Tris buffer to serve as the first point. Seven dilutions with a dilution factor of 2 were made. The assay protocol is the same as for thrombin except 25 nM of bovine factor Xa (from Sigma) in pH 8.4 Tris buffer was used instead of thrombin.

[4] = tested on: control plasma; assay: prothrombin time (PT) in control plasma; format: biochemical
Description: Then 200 µl of prewarmed (at 37°C for ∼10 minutes) thromboplastin with calcium (from Sigma) was rapidly added into the plasma sample. […]

[5] = tested on: Factor X; assay: Factor X inhibition assay (Ki), source of enzyme not stated; format: biochemical; details: ratio of Ki of an enzyme to the Ki of thrombin
[6] = tested on: tryptase; assay: tryptase inhibition assay (Ki, Example 5); format: biochemical, human lung
Description: (§3) The reaction progress curves were recorded by reading the plates, typically 60 times with 30 second to 2 minute intervals. Initial rates were determined by unweighted nonlinear least-squares fitting to a first order reaction in GraFit (Erithacus Software Limited, London, England).
Tryptase: 0.1 M tris, 0.2 M NaCl, 0.1 mg/ml heparin, pH=8.0 was utilized as buffer. […] From this point seven more dilutions were made for the assay.

[7] = tested on: thioredoxin; assay: block of insulin disulfide reduction by thioredoxin (turbidity at 650 nm); format: biochemical; details: 8 µM thioredoxin, 0-100 µM compound, 60 minutes
[8] = target: T4, trypsin (Bos taurus, UniProt P00760); assay: trypsin inhibition assay (Ki, Example 5); format: biochemical, bovine pancreas
T4 construct: from tissue; host or cells: bovine pancreas
T4 sequence (P00760 24-246): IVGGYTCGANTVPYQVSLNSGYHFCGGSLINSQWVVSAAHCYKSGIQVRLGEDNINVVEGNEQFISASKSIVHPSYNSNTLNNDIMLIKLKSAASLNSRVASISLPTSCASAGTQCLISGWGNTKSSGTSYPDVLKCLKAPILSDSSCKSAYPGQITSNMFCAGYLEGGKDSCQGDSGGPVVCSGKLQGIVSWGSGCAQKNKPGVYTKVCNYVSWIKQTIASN
Description: as §3

[9] = target: T5, factor X (Bos taurus, UniProt P00743); assay: Factor X inhibition assay (Ki, Example 5), bovine plasma enzyme; format: biochemical; details: footnote e: bovine plasma
T5 construct: bovine factor Xa (from Sigma); from tissue; host or cells: bovine plasma
T5 sequence (P00743 41-180 limits assumed): as the sequence (P00743 41-180 limits assumed) above
T5 sequence (P00743 234-492 limits assumed): as the sequence (P00743 234-492 limits assumed) above
Description: All inhibition assays were performed at room temperature in 96 well microplates using Bio-Rad microplate reader (Model 3550). […] The hydrolysis of chromogenic substrates was monitored at 405 nm. The reaction progress curves were recorded by reading the plates, typically 60 times with 30 second to 2 minute intervals. Initial rates were determined by unweighted nonlinear least-squares fitting to a first order reaction in GraFit (Erithacus Software Limited, London, England).
Factor X: Buffer and substrate were the same as used for thrombin assay. A 1:100 dilution was made -in the pH8.0 tris buffer to serve as the first point. Seven more dilutions from the first were made for the assay.

[10] = target: T6, factor VII (Homo sapiens, UniProt P08709); assay: Factor VII inhibition assay (Ki, Example 5); format: biochemical
T6 construct: human Factor VIIa (FVIIa)
T6 sequence (P08709 61-212 limits assumed): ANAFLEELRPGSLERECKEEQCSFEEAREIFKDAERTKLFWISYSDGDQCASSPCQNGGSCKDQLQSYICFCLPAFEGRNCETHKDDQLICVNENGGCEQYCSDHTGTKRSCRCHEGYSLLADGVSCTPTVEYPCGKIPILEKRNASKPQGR
T6 sequence (P08709 213-466 limits assumed): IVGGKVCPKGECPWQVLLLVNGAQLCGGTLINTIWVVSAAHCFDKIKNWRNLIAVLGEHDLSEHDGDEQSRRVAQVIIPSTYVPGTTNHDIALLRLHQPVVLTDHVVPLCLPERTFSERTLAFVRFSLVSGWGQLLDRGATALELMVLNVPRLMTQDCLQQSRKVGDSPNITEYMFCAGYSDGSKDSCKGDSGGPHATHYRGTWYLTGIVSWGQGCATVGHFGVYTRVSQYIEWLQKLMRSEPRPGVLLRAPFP
Description: as §3
From this concentration point seven more sequential dilutions were made for the assay.

[11] = target: thrombin (Bos taurus, UniProt P00735); assay: thrombin inhibition assay (Ki, Example 5); format: biochemical, bovine plasma; design: Thrombin: N-p-tosyl-Gly-Pro-Arg-pNA (from Sigma) was used at 0.5 mM concentration; from tissue; host or cells: bovine plasma
Description: as §3
Seven sequential dilutions were made from the first point for the assay.

[12] = target: Factor XI (Homo sapiens, UniProt P03951); assay: Factor XI inhibition assay (Ki); format: biochemical
Chain of Factor XI (P03951 388-625 limits assumed): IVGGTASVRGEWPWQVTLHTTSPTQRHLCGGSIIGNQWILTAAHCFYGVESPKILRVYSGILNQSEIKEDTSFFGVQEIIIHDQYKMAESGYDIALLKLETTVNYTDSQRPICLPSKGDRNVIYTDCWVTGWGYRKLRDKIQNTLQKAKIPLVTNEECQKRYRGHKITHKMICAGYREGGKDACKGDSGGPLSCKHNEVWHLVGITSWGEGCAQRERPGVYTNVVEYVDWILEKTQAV
Chain of Factor XI (P03951 19-387 limits assumed): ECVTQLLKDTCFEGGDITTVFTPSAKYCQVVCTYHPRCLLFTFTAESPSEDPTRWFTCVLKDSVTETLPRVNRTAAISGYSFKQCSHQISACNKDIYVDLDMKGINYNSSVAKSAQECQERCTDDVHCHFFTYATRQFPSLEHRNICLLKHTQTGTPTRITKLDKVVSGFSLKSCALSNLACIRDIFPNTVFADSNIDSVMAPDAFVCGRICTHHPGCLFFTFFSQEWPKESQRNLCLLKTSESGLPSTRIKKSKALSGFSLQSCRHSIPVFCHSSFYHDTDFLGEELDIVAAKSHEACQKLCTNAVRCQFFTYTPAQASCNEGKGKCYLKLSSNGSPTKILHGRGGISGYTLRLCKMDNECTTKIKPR

[13] = target: t-PA (Homo sapiens, UniProt P00750); assay: t-PA inhibition assay (Ki, Example 5); format: biochemical
Chain of t-PA (P00750 36-562): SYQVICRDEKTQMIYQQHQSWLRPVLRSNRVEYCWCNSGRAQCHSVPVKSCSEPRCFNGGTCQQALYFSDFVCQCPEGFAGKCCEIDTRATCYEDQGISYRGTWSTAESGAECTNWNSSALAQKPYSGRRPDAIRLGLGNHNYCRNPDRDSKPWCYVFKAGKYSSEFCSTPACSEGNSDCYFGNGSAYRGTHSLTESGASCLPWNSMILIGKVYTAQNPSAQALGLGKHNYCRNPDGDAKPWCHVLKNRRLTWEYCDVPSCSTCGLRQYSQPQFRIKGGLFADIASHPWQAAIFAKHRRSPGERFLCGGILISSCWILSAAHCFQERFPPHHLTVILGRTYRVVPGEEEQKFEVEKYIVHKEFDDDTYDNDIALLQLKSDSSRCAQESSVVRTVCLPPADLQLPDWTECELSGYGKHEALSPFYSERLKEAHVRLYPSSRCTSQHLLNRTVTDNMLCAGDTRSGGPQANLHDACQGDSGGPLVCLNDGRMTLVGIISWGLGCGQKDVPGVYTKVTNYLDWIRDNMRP
Description: as §3

[14] = target: T7, APC (Homo sapiens, UniProt P04070); assay: activated protein C inhibition assay (Ki, Example 5); format: biochemical, human plasma
T7 construct: from tissue; host or cells: human plasma
T7 sequence (P04070 43-197 limits assumed): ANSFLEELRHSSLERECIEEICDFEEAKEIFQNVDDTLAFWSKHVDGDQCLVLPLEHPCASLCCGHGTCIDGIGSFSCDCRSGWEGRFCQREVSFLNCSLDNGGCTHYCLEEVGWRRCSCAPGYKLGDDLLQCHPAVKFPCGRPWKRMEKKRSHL
T7 sequence (P04070 212-461 limits assumed): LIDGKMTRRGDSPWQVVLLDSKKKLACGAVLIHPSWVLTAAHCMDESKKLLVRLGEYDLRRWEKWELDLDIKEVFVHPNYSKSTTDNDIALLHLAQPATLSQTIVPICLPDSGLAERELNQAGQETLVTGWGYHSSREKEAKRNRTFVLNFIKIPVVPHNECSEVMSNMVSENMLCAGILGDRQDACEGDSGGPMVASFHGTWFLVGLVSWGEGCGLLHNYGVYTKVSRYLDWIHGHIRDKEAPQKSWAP

[15] = target: Plasmin (Bos taurus, UniProt P06868); assay: plasmin inhibition assay (Ki, Example 5); format: biochemical, bovine plasma; design: Plasmin: Buffer (see thrombin assay); from tissue; host or cells: bovine plasma
Chain of Plasmin (P06868 104-583 limits assumed): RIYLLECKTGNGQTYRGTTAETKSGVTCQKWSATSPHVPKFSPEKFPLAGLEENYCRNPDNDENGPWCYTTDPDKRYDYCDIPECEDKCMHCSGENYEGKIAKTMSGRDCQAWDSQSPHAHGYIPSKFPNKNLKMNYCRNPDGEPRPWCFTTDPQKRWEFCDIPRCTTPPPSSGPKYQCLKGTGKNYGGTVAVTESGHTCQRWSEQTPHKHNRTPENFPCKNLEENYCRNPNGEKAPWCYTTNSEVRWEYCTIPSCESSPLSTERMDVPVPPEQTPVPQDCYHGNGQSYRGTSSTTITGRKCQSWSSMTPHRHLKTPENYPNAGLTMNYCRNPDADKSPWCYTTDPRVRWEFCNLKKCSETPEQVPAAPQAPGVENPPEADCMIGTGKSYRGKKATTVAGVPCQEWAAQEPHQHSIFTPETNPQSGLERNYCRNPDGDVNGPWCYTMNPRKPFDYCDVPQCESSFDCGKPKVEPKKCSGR
Chain of Plasmin (P06868 584-812 limits assumed): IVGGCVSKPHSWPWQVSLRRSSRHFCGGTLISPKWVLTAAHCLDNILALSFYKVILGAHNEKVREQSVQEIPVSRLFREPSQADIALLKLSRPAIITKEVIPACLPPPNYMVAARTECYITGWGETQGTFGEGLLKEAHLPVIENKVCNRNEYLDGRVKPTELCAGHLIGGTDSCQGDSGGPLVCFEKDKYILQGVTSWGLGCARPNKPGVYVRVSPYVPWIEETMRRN
Description: as §3

[16] = target: thrombin-thrombomodulin complex (Bos taurus, UniProt P00735); assay: thrombin-thrombomodulin complex inhibition assay (Ki); format: biochemical; details: thrombin preincubated with 4 nM thrombomodulin, read-out: Ki (M) T.T.C.
[17] = target: thermolysin (Bacillus thermoproteolyticus, UniProt P00800); assay: thermolysin inhibition assay; format: biochemical
Chain of thermolysin (P00800 233-548, species assumed): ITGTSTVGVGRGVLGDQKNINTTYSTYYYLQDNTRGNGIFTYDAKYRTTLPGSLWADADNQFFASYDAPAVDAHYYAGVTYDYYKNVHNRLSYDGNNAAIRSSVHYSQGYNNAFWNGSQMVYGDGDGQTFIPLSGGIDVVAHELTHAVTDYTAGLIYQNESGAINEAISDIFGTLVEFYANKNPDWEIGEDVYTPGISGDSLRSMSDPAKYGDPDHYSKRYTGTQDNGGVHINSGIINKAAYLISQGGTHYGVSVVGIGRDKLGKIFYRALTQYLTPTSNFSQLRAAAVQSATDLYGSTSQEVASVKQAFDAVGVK

[18] = target: T8, leucine aminopeptidase M (Sus scrofa, UniProt P15145); assay: leucine aminopeptidase M inhibition assay; format: biochemical
T8 construct: purchased Sigma
T8 sequence (P15145 whole entry): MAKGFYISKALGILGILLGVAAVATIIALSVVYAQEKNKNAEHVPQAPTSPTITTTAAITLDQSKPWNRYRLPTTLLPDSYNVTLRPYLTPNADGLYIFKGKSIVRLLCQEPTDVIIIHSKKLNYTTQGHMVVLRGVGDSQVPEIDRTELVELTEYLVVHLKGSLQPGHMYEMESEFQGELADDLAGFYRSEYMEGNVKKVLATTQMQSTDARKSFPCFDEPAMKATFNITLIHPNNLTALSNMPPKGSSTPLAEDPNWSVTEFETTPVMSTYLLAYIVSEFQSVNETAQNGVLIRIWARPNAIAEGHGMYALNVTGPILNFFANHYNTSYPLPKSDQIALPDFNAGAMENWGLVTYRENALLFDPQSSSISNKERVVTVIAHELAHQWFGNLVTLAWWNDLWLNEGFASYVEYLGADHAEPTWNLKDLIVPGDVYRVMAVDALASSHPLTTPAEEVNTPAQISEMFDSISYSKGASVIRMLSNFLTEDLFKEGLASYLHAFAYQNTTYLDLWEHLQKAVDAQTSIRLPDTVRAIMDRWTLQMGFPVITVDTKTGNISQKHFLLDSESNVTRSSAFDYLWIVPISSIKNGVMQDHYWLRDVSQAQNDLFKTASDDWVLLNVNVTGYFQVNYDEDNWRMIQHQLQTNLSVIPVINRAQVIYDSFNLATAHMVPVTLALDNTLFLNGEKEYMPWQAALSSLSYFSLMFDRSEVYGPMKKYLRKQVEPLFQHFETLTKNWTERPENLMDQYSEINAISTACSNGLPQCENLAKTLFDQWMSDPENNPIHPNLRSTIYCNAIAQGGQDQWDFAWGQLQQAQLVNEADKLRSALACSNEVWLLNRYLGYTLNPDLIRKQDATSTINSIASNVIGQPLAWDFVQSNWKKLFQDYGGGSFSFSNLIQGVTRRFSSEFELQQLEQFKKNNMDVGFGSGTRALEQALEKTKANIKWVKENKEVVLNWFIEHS

[19] = target: papain (Carica papaya, UniProt P00784); assay: papain inhibition assay
Chain of papain (P00784 134-345): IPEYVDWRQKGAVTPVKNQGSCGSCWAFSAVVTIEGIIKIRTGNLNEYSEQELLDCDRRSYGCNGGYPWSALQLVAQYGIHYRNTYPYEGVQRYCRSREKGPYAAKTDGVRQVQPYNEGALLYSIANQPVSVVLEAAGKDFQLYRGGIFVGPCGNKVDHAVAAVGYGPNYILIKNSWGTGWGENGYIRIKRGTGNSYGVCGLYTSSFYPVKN

[20] = substrate hydrolysis, pH 8.4 Tris buffer, 37°C

SMILES: N=C(N)NCCC[C@H](NC(=O)[C@@H]1CCN2CC[C@@](N)(Cc3ccccc3)C(=O)N12)C(=O)Nc1ccc([N+](=O)[O-])cc1 [(11b)]
Km [1, 20]: 3 µM
kcat [1, 20]: 50 s⁻¹
Activity compared to the control ([1]; thrombin, relative to (D)FPR-PNA control): 0.76
Activity compared to the control [2]: 1.38

SMILES: N=C(N)NCCC[C@H](NC(=O)[C@@H]1CCN2CC[C@@](N)(Cc3ccccc3)C(=O)N12)C(=O)CCl [(13b)]
IC50 [3]: 385 ± 17 nM
PT ([4]; Concentration 1 pM): 13 s
PT ([4]; Concentration 10 pM): 17 s
PT ([4]; Concentration 50 pM): 18 s
PT ([4]; Concentration 100 pM): 23 s
PT ([4]; Concentration 200 pM): 24 s
PT ([4]; Concentration 500 pM): 27 s
PT ([4]; Concentration 1 nM): 30 s
PT ([4]; Concentration 10 nM): 31 s
PT ([4]; Concentration 30 nM): 31 s
PT ([4]; Concentration 50 nM): 30 s
PT ([4]; Concentration 80 nM): 33 s

SMILES: N=C(N)NCCCC(NC(=O)C1CCC2CCC(N)(Cc3ccccc3)C(=O)N21)C(=O)c1nc2ccccc2s1 (stereo not drawn) [(29b)]
Selectivity [5]: 227
Selectivity ([6]; Tryptase, ratio of Ki of an enzyme to the Ki of thrombin): 106
Ki ([6]; tryptase, read-out: Ki): 9e-09 M

SMILES: N=C(N)NCCC[C@H](NC(=O)[C@@H]1CCCN1C(=O)[C@H](N)Cc1ccccc1)C(=O)CCl [PPACK, (D)FPR-CH2Cl, reference compound]
PT ([4]; Concentration 500 pM): 15 s
PT ([4]; Concentration 1 nM): 18 s
PT ([4]; Concentration 10 nM): 22 s
PT ([4]; Concentration 20 nM): 25 s
PT ([4]; Concentration 40 nM): 28 s
PT ([4]; Concentration 60 nM): 30 s
PT ([4]; Concentration 80 nM): 31 s

SMILES: CC1=C2[C@H]3OC(=O)[C@@H](C)[C@@H]3CC[C@@]2(C)C=CC1=O [Santonin]
thioredoxin-induced turbidity of insulin [7]: did not block thioredoxin-induced turbidity of insulin

SMILES: N=C(N)NCCCC(NC(=O)C1CCC2CCC(N)(Cc3ccccc3)C(=O)N21)C(=O)c1nc2ccccc2s1 (stereo not drawn) [Structure (29b)]
Ki ([6]; read-out: Ki (M) Tryptase): 9e-09 M

SMILES: COC(=O)c1cccc2c1C(=O)N([C@@H](CC(C)C)C(=O)NO)C2=O [Structure (234)]
Ki [17]: 6000 nM
Ki [18]: 11000 nM
IC50 [19]: 8000 nM

Further lines, results first:

Ki [8]: 0.027 nM
Ki [9]: 345 nM
Ki [10]: 16.4 nM
SMILES: N=C(N)NCCC[C@H](NC(=O)[C@@H]1CCN2CC[C@@](N)(Cc3ccccc3)C(=O)N12)C(=O)C(=O)NCCc1ccccc1 [Structure (35)]

Ki [11]: 0.0732 nM
Ki [8]: 0.0773 nM
SMILES: N=C(N)NCCC[C@H](NC(=O)[C@@H]1CCN2CC[C@@](N)(Cc3ccccc3)C(=O)N12)C(=O)C(=O)NCc1ccccc1 [Structure (37)]

Ki [11]: 0.31 nM
SMILES: N=C(N)NCCC[C@H](NC(=O)[C@@H]1CCN2CC[C@@](N)(Cc3ccccc3)C(=O)N12)C(=O)C(=O)NCCc1ccc(Cl)cc1 [Structure (39)]

Ki [11]: 0.45 nM
SMILES: COc1ccc(CCNC(=O)C(=O)[C@H](CCCNC(=N)N)NC(=O)[C@@H]2CCN3CC[C@@](N)(Cc4ccccc4)C(=O)N23)cc1 [Structure (41)]

Ki [11]: 5.4 nM
Ki [8]: 52.4 nM
Ki [12]: 1240 nM
Ki [13]: 17200 nM
Ki [14]: 25600 nM
Ki [15]: 23800 nM
Ki ([6]; read-out: Ki (M) Tryptase): 1.65e-06 M
Ki [16]: 6.9e-09 M
Ki [10]: 29600 nM
SMILES: COC(=O)c1c[nH]c(C(=O)[C@H](CCCNC(=N)N)NC(=O)[C@@H]2CCN3CC[C@@](N)(Cc4ccccc4)C(=O)N23)n1 [Structure (45)]

Ki [8]: 1.9 nM
Ki [9]: 1500 nM
Ki [10]: 968 nM
SMILES: N=C(N)NCCC[C@H](NC(=O)[C@@H]1CCN2CC[C@@](N)(Cc3ccccc3)C(=O)N12)C(=O)c1nccs1 [Structure (47)]

Ki [11]: 7.25 nM
Ki [8]: 37.9 nM
Ki [12]: 1730 nM
Ki [10]: 4260 nM
SMILES: N=C(N)NC(=O)NC[C@H](NC(=O)[C@@H]1CCN2CC[C@@](N)(Cc3ccccc3)C(=O)N12)C(=O)c1nc2ccccc2s1 [Structure (51)]
